Experiments:
[1] = tested on: lung tissue of a mouse animal model irradiated with 90 Gy; experiment: Inhibition test on tissue damage caused by radiation (H&E staining of lung tissue); format: in vivo; conditions: 10 mg/kg intraperitoneally one hour before 90 Gy chest irradiation; two weeks after irradiation; compared to non-treatment group (IR)
Protocol: The tissue of a mouse was fixed with 10% neutral formalin for one day, and a paraffin section was made. In order to remove the paraffin around the tissue, the tissue was allowed to react with a xylene solution and 95%, 90%, and 70% ethanol solutions in sequential order for 5 minutes each, and then immersed in a hematoxylin solution for 1 minute to stain the nuclei and then washed under running water for 10 minutes. Thereafter, the cytoplasm was stained by immersing the tissue in an eosin solution for 30 seconds. Thereafter, the tissue was immersed in 50%, 70%, 90%, and 95% ethanol solutions, and a xylene solution in sequential order, followed by dropping one drop of a mounting solution. Then, the tissue was covered with a cover slide and observed under a microscope (Carl Zeiss Vision). The lung tissue of a mouse animal model, in which the chest of the mouse was irradiated in a size of 3 mm with an intensity of 90 Gy, was fixed with 10% formalin, and a paraffin section was made. Thereafter, tissue inflammatory response and fibrosis were identified by using a hematoxylin and eosin staining method. Upon observing the tissue with this staining method, the cell nucleus is observed in blue and the cytoplasm in pink. One hour before irradiating the mouse animal model, 10 mg/kg of Dacomitinib was administered intraperitoneally. […]

[2] = tested on: vascular wall in the lung tissue of a mouse animal model irradiated with 90 Gy; experiment: Inhibition test on in vivo vascular damage caused by radiation (vascular wall thickness, H&E staining); conditions: 10 mg/kg intraperitoneally one hour before 90 Gy chest irradiation; two weeks after irradiation; compared to non-treatment group (IR)
Protocol: The tissue of a mouse was fixed with 10% neutral formalin for one day, and a paraffin section was made. In order to remove the paraffin around the tissue, the tissue was allowed to react with a xylene solution and 95%, 90%, and 70% ethanol solutions in sequential order for 5 minutes each, and then immersed in a hematoxylin solution for 1 minute to stain the nuclei and then washed under running water for 10 minutes. Thereafter, the cytoplasm was stained by immersing the tissue in an eosin solution for 30 seconds. Thereafter, the tissue was immersed in 50%, 70%, 90%, and 95% ethanol solutions, and a xylene solution in sequential order, followed by dropping one drop of a mounting solution. Then, the tissue was covered with a cover slide and observed under a microscope (Carl Zeiss Vision). The lung tissue of a mouse animal model, in which the chest of the mouse was irradiated in a size of 3 mm with an intensity of 90 Gy, was fixed with 10% formalin, and a paraffin section was made. Thereafter, the tissue was stained with hematoxylin and eosin. Upon observing the tissue with this staining method, the cell nucleus is observed in blue and the cytoplasm in pink. One hour before irradiating the mouse animal model, 10 mg/kg of Dacomitinib was administered intraperitoneally. […]

[3] = tested on: pulmonary vascular endothelial cells of irradiated lung; experiment: Pulmonary fibrosis inhibition test in experimental animal model (trichrome staining of collagen); format: in vivo, C57BL/6 mouse; conditions: 10 mg/kg intraperitoneally one hour before 90 Gy lung irradiation; inner wall of the aorta of lung tissue; compared to irradiation group (IR)
Protocol: The tissue of a mouse was fixed with 10% neutral formalin for one day, and a paraffin section was made. In order to remove paraffin around the tissue, the tissue was allowed to react with a xylene solution and 95%, 90%, and 70% ethanol solutions in sequential order for 5 minutes each. For the antigen activation of the tissue, the tissue was immersed in a 0.1 M citric acid solution (pH 6.0) and then boiled for 20 minutes. Subsequently, the tissue was allowed to react with a Bouin's solution for 1 minute, Weigert's hematoxylin for 10 minutes, phoshotunstic/phosphomolydic acid for 10 minutes, aniline blue for 5 minutes, and 1% acetic acid for 1 minute in sequential order. Thereafter, a dehydration process was performed, and then the tissue was covered with a cover glass and observed under a microscope (Carl Zeiss Vision). In order to observe whether a phenomenon of pulmonary fibrosis of vascular endothelial cells is shown as the symptom of pulmonary fibrosis occurred after radiotherapy, the site of the lung of a C57BL/6 mouse was topically irradiated with an intensity of 90 Gy. After excising the lung from the mouse, the cross-section of the aorta of the lung tissue was stained by a trichrome staining method in order to identify collagen which is a protein shown upon fibrosis of the pulmonary vascular endothelial cells. […]

[4] = tested on: γH2AX in irradiated lung tissue; experiment: Inhibition test on DNA damage caused by radiation (γH2AX immunostaining); format: in vivo, mouse; conditions: 10 mg/kg one hour prior to 90 Gy lung irradiation; compared to non-treatment group (IR)
Protocol: The tissue of a mouse was fixed with 10% neutral formalin for one day, and a paraffin section was made. In order to remove paraffin around the tissue, the tissue was immersed in a xylene solution and 100%, 95%, 90%, and 70% ethanol solutions in sequential order. For the antigen activation of the tissue, the tissue was immersed in a 0.1 M citric acid solution (pH 6.0) and boiled for 30 minutes, and then reacted with 3% hydrogen peroxide for 15 minutes. The tissue was allowed to react with γH2AX (abcam), which was diluted in 1:200 ratio in a PBS solution (including phosphate based saline buffer and 0.1% triton x-100), at 4° C. for 16 hours. After washing the tissue with PBS, a secondary antibody conjugated with biotin was diluted in 1:200 ratio and reacted with the tissue at room temperature for 30 minutes. After reacting the tissue with ABC (Avidin biotin complex) at room temperature for 30 minutes and color-developing 3,3′-DAB (3,3′-diaminobenzidine), the tissue was counterstained with hematoxylin. Subsequently, the tissue was immersed in 50%, 70%, 90%, 95%, and 100% ethanol solutions and a xylene solution in sequential order, followed by dropping one drop of a mounting solution. Then, the tissue was covered with a cover slide and observed under a microscope (Carl Zeiss Vision). […]

[5] = tested on: lung tissue of bleomycin-injected mouse; experiment: Inhibition test on tissue damage caused by bleomycin (bleomycin-induced pulmonary fibrosis model); format: in vivo; conditions: 10 mg/kg intraperitoneally one hour before 1.25 U/kg bleomycin into the airway; three weeks after injection; compared to non-treatment group
Protocol: The tissue of a mouse was fixed with 10% neutral formalin for one day, and a paraffin section was made. In order to remove the paraffin around the tissue, the tissue was allowed to react with a xylene solution and 95%, 90%, and 70% ethanol solutions in sequential order for 5 minutes each, and then immersed in a hematoxylin solution for 1 minute to stain the nuclei and then washed under running water for 10 minutes. Thereafter, the cytoplasm was stained by immersing the tissue in an eosin solution for 30 seconds. Thereafter, the tissue was immersed in 50%, 70%, 90%, and 95% ethanol solutions, and a xylene solution in sequential order, followed by dropping one drop of a mounting solution. Then, the tissue was covered with a cover slide and observed under a microscope (Carl Zeiss Vision). The tissue of a mouse was fixed with 10% neutral formalin for one day, and a paraffin section was made. In order to remove paraffin around the tissue, the tissue was allowed to react with a xylene solution and 95%, 90%, and 70% ethanol solutions in sequential order for 5 minutes each. For the antigen activation of the tissue, the tissue was immersed in a 0.1 M citric acid solution (pH 6.0) and then boiled for 20 minutes. […]

SMILES: COc1cc2ncnc(Nc3ccc(F)c(Cl)c3)c2cc1NC(=O)/C=C/CN1CCCCC1 [Dacomitinib, (2E)-N-{4-[(3-chloro-4-fluorophenyl)amino]-7-methoxy-6-quinazolinyl}-4-(1-piperidinyl)-2-but enamide]
- infiltration of the inflammatory cells and the fibrotic matrix around blood vessels [1]: remarkably reduced
- thickness of the vascular wall [2]: remarkably reduced
- blue sites of collagen (protein associated with pulmonary fibrosis), trichrome staining [3]: remarkably reduced
- expression of γH2AX according to the DNA damage [4]: remarkably reduced
- pathological characteristics such as infiltration of inflammatory cells, fibrous nodules, interstitial thickening [5]: remarkably inhibited

Reference: US20230165861A1, “USE FOR PROTECTING OR MITIGATING RADIATION DAMAGE, AND FOR PREVENTING OR TREATING PULMONARY FIBROSIS” (KOREA INSTITUTE OF RADIOLOGICAL & MEDICAL SCIENCES, priority 2017, published 2023)
